Assay results reported in US9790185B2, “Process for the preparation of regorafenib and its crystalline forms” (SHILPA MEDICARE LIMITED, priority 2014, dated 2017).
Like-named read-outs stand apart in the source and are kept apart here.

Columns and labels:
[1] = test system: tumour models including colorectal tumour models; conditions: preclinical studies; broad spectrum of tumour models including colorectal; mediated by antiangiogenic and antiproliferative effects; cited from earlier work
[2] = cited from earlier work
[3] = background description of the drug substance; cited from earlier work
[4] = Stability on handling and storage of crystalline forms; conditions: without any significant or measurable change in morphology and physicochemical characteristics
Text: (§1) The merit of the process according to the present invention resides in that product isolated after drying is directly obtained as crystalline Form I of Regorafenib (I). Said material is found devoid of any other crystal lattice and is adequately stable to handle and store for longer time (at least up to more than 6 months) without any significant or measurable change in its morphology and physicochemical characteristics. Crystalline Form I of Regorafenib (I) obtained according to the process of the present invention results in the final API purity by of more than 99.5% w/w, and found to be anhydrous with moisture content of not more than 0.5%.
as §1, with “Form III” for “Form I”, “by HPLC” for “by”

| time adequately stable to handle and store [4] | SMILES | antitumour activity [1] | solubility ([2]; in 2-propanol) | solubility ([2]; in PEG 400 (macrogol)) | solubility ([2]; in acetone) | solubility ([2]; in acetonitrile) | solubility ([2]; in dichloromethane) | solubility ([2]; in dilute acid solution) | solubility ([2]; in dilute alkaline solution) | solubility ([2]; in ethanol) | solubility ([2]; in ethyl acetate) | solubility ([2]; in glycerine) | solubility ([2]; in methanol) | solubility ([2]; in n-heptane) | solubility ([2]; in propylene glycol) | solubility ([2]; in toluene) | solubility ([2]; in water) | hygroscopicity [3] |
| --- | --- | --- | --- | --- | --- | --- | --- | --- | --- | --- | --- | --- | --- | --- | --- | --- | --- | --- |
| – | CNC(=O)c1cc(Oc2ccc(NC(=O)Nc3ccc(Cl)c(C(F)(F)F)c3)c(F)c2)ccn1 [Regorafenib, 4-[4-({[4-chloro-3-(trifluoromethyl)phenyl]carbamoyl}amino)-3-fluorophenoxy]-N-methylpyridine-2-carboxamide] | demonstrated antitumour activity | slightly soluble | soluble | sparingly soluble | slightly soluble | slightly soluble | practically insoluable | practically insoluable | slightly soluble | slightly soluble | practically insoluable | slightly soluble | practically insoluable | slightly soluble | practically insoluable | practically insoluable | not hygroscopic |
| more than 6 months | CNC(=O)c1cc(Oc2ccc(NC(=O)Nc3ccc(Cl)c(C(F)(F)F)c3)c(F)c2)ccn1 [crystalline Form I of Regorafenib (I), 4-[4-({[4-chloro-3-(trifluoromethyl)phenyl]carbamoyl}amino)-3-fluorophenoxy]-N-methylpyridine-2-carboxamide] | – | – | – | – | – | – | – | – | – | – | – | – | – | – | – | – | – |
